Source: patent US20150353928A1, “Genes Contributing to Survival of Cancer Cells” (Georgetown University, priority 2011, published 2015)

Experiments:
LCC9 cells = test: Bortezomib concentration response, Cell Titer Blue viability; type: cell-based; conditions: 2.5 nM-2.5 μM
Description: (§1) LCC1, LCC9 and MCF7 cells were seeded at density so that the untreated condition was at 80% confluence on day 7 in the appropriate medium. Cells were incubated at 37° C. and 5% CO2 for […]. Twenty-four hours later, cells were treated with Bortezomib with final well concentrations ranging from 2.5 nM-2.5 μM. On the seventh day, 20 μL of 1:1 mixture of Cell Titer Blue (CTB) from Promega and Hank's Buffered Salt Solution (HBSS) was added to each well and incubated for another 4 hours before reading out the results using the EnVision Multilabel Plate Reader from PerkinElmer. Viability was calculated as a percentage of the untreated cells.

LCC1 cells = test: as above; type: cell-based; conditions: 2.5 nM-2.5 μM
Description: as §1

How did the “sensitivity to bortezomib compared to MCF7 (concentration response curves)” value (LCC9 cells) turn out when `CC(C)C[C@H](NC(=O)[C@H](Cc1ccccc1)NC(=O)c1cnccn1)B(O)O` [Bortezomib] was run?
Its value is “more sensitive”.

And the “sensitivity to bortezomib compared to MCF7 (concentration response curves)” value (LCC1 cells)?
Its value is “more sensitive”.
